In ChEMBL document CHEMBL2384999, “Discovery of a potent, dual serotonin and norepinephrine reuptake inhibitor” (ACS Med Chem Lett, 2013):
The source made the active and inactive calls. The calls are words filed in the database; no cut-off is given here.

Assays:
[1] = target: T1, Sodium-dependent serotonin transporter (Homo sapiens, UniProt P31645); test: biochemical; assay type: cell-based, HEK293
Target sequence in this assay (P31645 whole entry): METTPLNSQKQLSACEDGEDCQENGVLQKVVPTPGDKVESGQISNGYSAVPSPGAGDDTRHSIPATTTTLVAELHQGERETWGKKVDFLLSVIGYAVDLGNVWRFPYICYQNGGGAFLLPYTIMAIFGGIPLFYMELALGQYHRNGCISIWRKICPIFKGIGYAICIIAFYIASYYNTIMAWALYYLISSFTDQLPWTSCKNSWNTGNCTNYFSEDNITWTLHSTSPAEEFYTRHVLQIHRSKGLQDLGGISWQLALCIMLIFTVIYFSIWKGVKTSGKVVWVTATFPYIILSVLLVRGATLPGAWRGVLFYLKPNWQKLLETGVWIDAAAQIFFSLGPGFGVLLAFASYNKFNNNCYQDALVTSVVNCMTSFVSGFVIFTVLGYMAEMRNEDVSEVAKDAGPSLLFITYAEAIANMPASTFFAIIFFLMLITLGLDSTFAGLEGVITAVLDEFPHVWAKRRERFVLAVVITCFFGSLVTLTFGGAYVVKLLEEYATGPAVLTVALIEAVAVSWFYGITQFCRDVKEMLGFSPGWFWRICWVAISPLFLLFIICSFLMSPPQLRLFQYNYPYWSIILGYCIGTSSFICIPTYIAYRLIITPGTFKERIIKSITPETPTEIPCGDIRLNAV
Description: Displacement of [3H]citalopram from human SERT transfected in HEK293 cells after 3 hrs by Wallac counting analysis

[2] = target: Sodium-dependent dopamine transporter (Homo sapiens, UniProt Q01959); test: biochemical
Sequence of Sodium-dependent dopamine transporter (Q01959 whole entry): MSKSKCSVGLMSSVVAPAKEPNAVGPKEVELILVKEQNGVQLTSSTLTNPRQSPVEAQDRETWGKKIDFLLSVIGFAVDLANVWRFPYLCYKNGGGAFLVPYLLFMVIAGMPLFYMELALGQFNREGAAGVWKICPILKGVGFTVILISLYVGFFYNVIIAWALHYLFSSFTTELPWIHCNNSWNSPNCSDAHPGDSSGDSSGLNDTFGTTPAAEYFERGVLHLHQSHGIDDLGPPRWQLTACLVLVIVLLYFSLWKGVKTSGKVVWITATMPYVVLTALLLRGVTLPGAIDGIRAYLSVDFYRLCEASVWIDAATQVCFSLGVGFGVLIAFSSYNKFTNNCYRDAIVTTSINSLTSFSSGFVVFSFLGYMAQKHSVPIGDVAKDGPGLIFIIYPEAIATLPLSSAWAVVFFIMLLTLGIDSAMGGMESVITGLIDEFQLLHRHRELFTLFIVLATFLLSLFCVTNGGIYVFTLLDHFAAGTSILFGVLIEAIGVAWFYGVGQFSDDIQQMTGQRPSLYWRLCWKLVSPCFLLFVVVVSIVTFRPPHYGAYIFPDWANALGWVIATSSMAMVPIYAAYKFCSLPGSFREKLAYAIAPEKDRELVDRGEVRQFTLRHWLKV
Description: Displacement of [3H]WIN35428 from human DAT transfected in HEK293 cells after 3 hrs by Wallac counting analysis

Rattus norvegicus [3] = details: Sprague-Dawley
Description: (§1) In vivo SERT receptor occupancy in po dosed Sprague-Dawley rat brain cortex after 2 hrs in presence of DASB

Rattus norvegicus [4] = system: Rattus norvegicus
[5] = target: T1, Sodium-dependent serotonin transporter; test: Inhibition of human SERT transfected in HEK293 cells assessed as inhibition of [3H]serotonin uptake incubated 30 mins prior to substrate addition measured after 1 minute 50 secs; assay type: cell-based
Target sequence in this assay (P31645 whole entry, looked up): as the sequence (P31645 whole entry) above

Cytochrome P450 2C9 = Cytochrome P450 2C9 (Homo sapiens, UniProt P11712); test: Inhibition of CYP2C9 (unknown origin); assay type: ADME
Sequence of Cytochrome P450 2C9 (P11712 whole entry): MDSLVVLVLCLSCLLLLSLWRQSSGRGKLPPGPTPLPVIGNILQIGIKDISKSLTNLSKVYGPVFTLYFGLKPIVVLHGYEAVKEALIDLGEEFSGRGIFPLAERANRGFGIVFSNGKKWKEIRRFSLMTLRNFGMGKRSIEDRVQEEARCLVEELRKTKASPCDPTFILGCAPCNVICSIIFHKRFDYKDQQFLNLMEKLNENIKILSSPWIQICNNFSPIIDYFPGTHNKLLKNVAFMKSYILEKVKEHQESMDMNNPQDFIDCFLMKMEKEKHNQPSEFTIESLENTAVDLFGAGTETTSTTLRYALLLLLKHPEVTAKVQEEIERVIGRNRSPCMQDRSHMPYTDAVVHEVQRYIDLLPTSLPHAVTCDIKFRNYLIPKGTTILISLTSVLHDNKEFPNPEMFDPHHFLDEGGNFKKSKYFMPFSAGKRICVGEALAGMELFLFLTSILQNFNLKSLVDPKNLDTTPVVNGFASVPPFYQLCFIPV

[6] = Tmax in rat at 1 mg/kg, po; assay type: ADME, organism-based; parameters: dose 1 mg/kg, route oral; details: in vivo
[7] = Clearance in dog at 1 mg/kg, iv; assay type: ADME, organism-based, Canis lupus familiaris; parameters: dose 1 mg/kg, route intravenous; details: in vivo
[8] = AUC (0 to infinity) in dog at 1 mg/kg, po; assay type: ADME, organism-based, Canis lupus familiaris; parameters: time infinity, dose 1 mg/kg, route oral; details: plasma
Rattus norvegicus [9] = test: Neurotoxicity in Sprague-Dawley rat at 100 mg/kg, po by rotorod test; assay type: toxicity, organism-based; parameters: dose 100 mg/kg, route oral; details: in vivo
[10] = Half life in dog at 1 mg/kg, iv; assay type: ADME, organism-based, Canis lupus familiaris; parameters: dose 1 mg/kg, route intravenous; details: in vivo
[11] = Cmax in rat at 1 mg/kg, po; assay type: ADME, organism-based; parameters: dose 1 mg/kg, route oral; details: in vivo
[12] = Ratio of drug uptake in brain to plasma in Sprague-Dawley rat at 10 mg/kg, po; assay type: ADME, organism-based; parameters: dose 10 mg/kg, route oral; details: read-out: BPR
[13] = Oral bioavailability in rat at 1 mg/kg; assay type: ADME, organism-based; details: in vivo
Brain = test: Drug uptake in Sprague-Dawley rat brain at 10 mg/kg, po; assay type: ADME, organism-based; parameters: dose 10 mg/kg, route oral; details: in vivo, read-out: Drug uptake
[14] = Half life in rat at 1 mg/kg, iv; assay type: ADME, organism-based; parameters: dose 1 mg/kg, route intravenous; details: in vivo
[15] = Clearance in rat at 1 mg/kg, iv; assay type: ADME, organism-based; parameters: dose 1 mg/kg, route intravenous; details: in vivo
CYP2C9 = CYP2C9 (Homo sapiens, UniProt P11712); test: Inhibition of CYP2C9 (unknown origin) at 10 uM; assay type: ADME
Sequence of CYP2C9 (P11712 whole entry): as above

[16] = AUC (0 to infinity) in rat at 1 mg/kg, po; assay type: ADME, organism-based; parameters: time infinity, dose 1 mg/kg, route oral; details: plasma
[17] = Metabolic stability in rat liver microsomes after 30 mins by LC-ESI/MS analysis; assay type: ADME, Microsome; details: read-out: Stability
[18] = AUC (0 to infinity) in dog at 1 mg/kg, iv; assay type: ADME, organism-based, Canis lupus familiaris; parameters: dose 1 mg/kg, route intravenous, time infinity; details: plasma
Rattus norvegicus [19] = species: Rattus norvegicus; test: animal or person; details: po
[20] = target: Sodium-dependent serotonin transporter (Rattus norvegicus, UniProt P31652)
Sequence of Sodium-dependent serotonin transporter (Rattus norvegicus, UniProt P31652) (P31652 whole entry): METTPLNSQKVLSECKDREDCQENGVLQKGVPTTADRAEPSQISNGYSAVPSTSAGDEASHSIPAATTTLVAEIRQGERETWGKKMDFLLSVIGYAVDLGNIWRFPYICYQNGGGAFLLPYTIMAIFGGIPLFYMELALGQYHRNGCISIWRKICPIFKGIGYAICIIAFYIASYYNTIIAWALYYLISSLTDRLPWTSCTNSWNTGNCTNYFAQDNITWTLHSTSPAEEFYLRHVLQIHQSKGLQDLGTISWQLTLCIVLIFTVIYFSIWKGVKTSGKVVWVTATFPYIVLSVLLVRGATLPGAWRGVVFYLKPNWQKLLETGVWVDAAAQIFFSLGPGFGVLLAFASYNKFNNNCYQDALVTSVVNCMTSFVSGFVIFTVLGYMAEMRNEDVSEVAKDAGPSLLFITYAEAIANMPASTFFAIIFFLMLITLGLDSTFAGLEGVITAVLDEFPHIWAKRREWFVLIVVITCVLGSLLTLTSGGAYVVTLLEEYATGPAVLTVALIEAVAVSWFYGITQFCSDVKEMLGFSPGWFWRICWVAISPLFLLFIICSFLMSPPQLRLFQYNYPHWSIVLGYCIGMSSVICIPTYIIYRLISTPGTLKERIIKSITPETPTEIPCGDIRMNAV
Description: Displacement of [3H]-citalopram from Sprague-Dawley rat brain SERT after 1 hr

Cytochrome P450 2D6 = Cytochrome P450 2D6 (Homo sapiens, UniProt P10635); test: Inhibition of CYP2D6 (unknown origin); assay type: ADME
Sequence of Cytochrome P450 2D6 (P10635 whole entry): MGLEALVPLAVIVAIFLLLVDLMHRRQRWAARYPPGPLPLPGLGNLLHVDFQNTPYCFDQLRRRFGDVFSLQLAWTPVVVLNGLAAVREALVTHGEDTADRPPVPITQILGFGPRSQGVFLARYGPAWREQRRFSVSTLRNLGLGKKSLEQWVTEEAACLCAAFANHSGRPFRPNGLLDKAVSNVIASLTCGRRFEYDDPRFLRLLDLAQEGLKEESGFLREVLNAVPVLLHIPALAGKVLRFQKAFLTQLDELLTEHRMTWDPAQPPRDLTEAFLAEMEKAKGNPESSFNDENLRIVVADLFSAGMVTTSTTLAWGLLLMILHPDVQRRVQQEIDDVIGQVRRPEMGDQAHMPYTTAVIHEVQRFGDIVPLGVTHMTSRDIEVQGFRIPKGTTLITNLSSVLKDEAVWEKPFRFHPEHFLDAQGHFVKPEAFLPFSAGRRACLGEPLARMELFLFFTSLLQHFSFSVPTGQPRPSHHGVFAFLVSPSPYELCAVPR

Rattus norvegicus [21] = species: Rattus norvegicus; test: animal or person; details: Sprague-Dawley, po, 2 h
Description: as §1

Cytochrome P450 1A2 = target: T2, Cytochrome P450 1A2 (Homo sapiens, UniProt P05177); test: Inhibition of CYP1A2 (unknown origin); assay type: ADME
T2 sequence (P05177 whole entry): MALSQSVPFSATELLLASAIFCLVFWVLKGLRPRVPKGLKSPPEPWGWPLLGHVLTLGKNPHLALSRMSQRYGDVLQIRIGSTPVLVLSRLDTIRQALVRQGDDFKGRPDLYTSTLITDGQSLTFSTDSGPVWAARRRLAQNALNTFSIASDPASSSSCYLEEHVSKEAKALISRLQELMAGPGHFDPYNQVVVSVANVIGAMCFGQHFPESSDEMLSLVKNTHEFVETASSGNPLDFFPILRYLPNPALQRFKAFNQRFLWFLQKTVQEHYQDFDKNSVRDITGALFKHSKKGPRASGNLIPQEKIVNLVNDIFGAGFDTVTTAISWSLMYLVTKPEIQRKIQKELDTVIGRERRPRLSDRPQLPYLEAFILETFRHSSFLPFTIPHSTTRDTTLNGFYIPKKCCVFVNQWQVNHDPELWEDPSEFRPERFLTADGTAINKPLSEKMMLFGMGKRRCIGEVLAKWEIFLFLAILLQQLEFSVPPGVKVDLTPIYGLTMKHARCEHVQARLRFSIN

[22] = Serum protein binding in human; assay type: ADME, cell-free; details: read-out: PB (converted)
CYP2D6 = CYP2D6 (Homo sapiens, UniProt P10635); test: Inhibition of CYP2D6 (unknown origin) at 10 uM; assay type: ADME
Sequence of CYP2D6 (P10635 whole entry): as the sequence (P10635 whole entry) above

[23] = Metabolic stability in dog liver microsomes after 30 mins by LC-ESI/MS analysis; assay type: ADME, Canis lupus familiaris, Microsome; details: read-out: Stability
[24] = Metabolic stability in human liver microsomes after 30 mins by LC-ESI/MS analysis; assay type: ADME, Microsome; details: read-out: Stability
Plasma = test: Drug uptake in Sprague-Dawley rat plasma at 10 mg/kg, po; assay type: ADME, organism-based; parameters: dose 10 mg/kg, route oral; details: in vivo
Cytochrome P450 3A4 = Cytochrome P450 3A4 (Homo sapiens, UniProt P08684); test: Inhibition of CYP3A4 (unknown origin); assay type: ADME
Sequence of Cytochrome P450 3A4 (P08684 whole entry): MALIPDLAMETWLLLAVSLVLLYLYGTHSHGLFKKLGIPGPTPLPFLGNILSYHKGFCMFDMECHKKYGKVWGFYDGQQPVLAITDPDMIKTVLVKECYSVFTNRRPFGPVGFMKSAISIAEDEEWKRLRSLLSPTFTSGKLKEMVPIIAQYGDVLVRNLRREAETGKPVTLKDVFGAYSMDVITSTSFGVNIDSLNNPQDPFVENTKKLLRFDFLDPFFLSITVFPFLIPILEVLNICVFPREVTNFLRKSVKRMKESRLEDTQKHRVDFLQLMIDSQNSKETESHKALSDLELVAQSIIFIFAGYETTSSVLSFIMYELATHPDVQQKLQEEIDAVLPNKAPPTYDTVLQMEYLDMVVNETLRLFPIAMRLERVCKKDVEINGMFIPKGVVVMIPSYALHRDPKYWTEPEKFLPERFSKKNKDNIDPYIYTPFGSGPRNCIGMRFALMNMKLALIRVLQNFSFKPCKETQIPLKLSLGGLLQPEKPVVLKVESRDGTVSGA

[25] = Volume of distribution at steady state in dog at 1 mg/kg, iv; assay type: ADME, organism-based, Canis lupus familiaris; parameters: dose 1 mg/kg, route intravenous; details: in vivo, read-out: Vdss
CYP3A4 = CYP3A4 (Homo sapiens, UniProt P08684); test: Inhibition of CYP3A4 (unknown origin) at 10 uM; assay type: ADME
Sequence of CYP3A4 (P08684 whole entry): as above

[26] = Tmax in dog at 1 mg/kg, po; assay type: ADME, organism-based, Canis lupus familiaris; parameters: dose 1 mg/kg, route oral; details: in vivo
[27] = Volume of distribution at steady state in rat at 1 mg/kg, iv; assay type: ADME, organism-based; parameters: dose 1 mg/kg, route intravenous; details: in vivo, read-out: Vdss
[28] = Oral bioavailability in dog at 1 mg/kg; assay type: ADME, organism-based, Canis lupus familiaris; details: in vivo
[29] = AUC (0 to infinity) in rat at 1 mg/kg, iv; assay type: ADME, organism-based; parameters: time infinity, dose 1 mg/kg, route intravenous; details: plasma
[30] = Cmax in dog at 1 mg/kg, po; assay type: ADME, organism-based, Canis lupus familiaris; parameters: dose 1 mg/kg, route oral; details: in vivo

## COc1ccc(O[C@H](CC(C)C)[C@@H]2CCNC2)c(C)n1
[1]
  Ki: 0.75 nM
[2]
  Ki: > 890 nM

## COc1ccc(O[C@@H](CC(C)C)[C@@H]2CCNC2)c(C)n1
[1]
  Ki: 0.84 nM
[2]
  Ki: > 890 nM

## COc1ccc(O[C@@H](CC(C)C)[C@H]2CCNC2)c(C)n1 (stereo in doubt; form 2)
[1]
  Ki: 0.21 nM
[2]
  Ki: 354 nM

## COc1ccc(O[C@@H](CC(C)C)[C@H]2CCNC2)c(C)n1 [listing 1 of 2 here]
Rattus norvegicus [3]
  Activity: Dose-dependent effect
Rattus norvegicus [4]
  inhibition: Dose-dependent effect
[5]
  inhibition: Active

## COc1ccc(O[C@@H](CC(C)C)[C@H]2CCNC2)c(C)n1 [listing 2 of 2 here]
Cytochrome P450 2C9
  IC50: > 10000 nM
[6]
  Tmax: 1.3 h
[7]
  clearance: 8.2 mL/min/kg
[8]
  AUC(0-inf): 4.13 µM·h
Rattus norvegicus [9]
  Activity: Non-toxic
[10]
  half-life: 4.6 h
[11]
  Cmax: 65 nM
[12]
  Kp: 3
[13]
  bioavailability: 31%
Brain
  concentration: 450 nM
[14]
  half-life: 0.84 h
[15]
  clearance: 120 mL/min/kg
CYP2C9
  inhibition at 10 µM: < 30%
[16]
  AUC(0-inf): 0.251 µM·h
[1]
  IC50: 1.9 nM
[17]
  remaining at 0.5 h: 92%
[18]
  AUC(0-inf): 8.09 µM·h
Rattus norvegicus [19]
  ED80: 6.8 mg/kg
[20]
  Ki: 0.16 nM
Cytochrome P450 2D6
  IC50: > 10000 nM
Rattus norvegicus [21]
  ED80: 10.6 mg/kg
Cytochrome P450 1A2
  IC50: > 10000 nM
[22]
  fraction unbound: 0.43
CYP2D6
  inhibition at 10 µM: < 30%
[23]
  remaining at 0.5 h: 57%
[24]
  remaining at 0.5 h: 28%
Plasma
  concentration: 146 nM
Cytochrome P450 3A4
  IC50: > 10000 nM
[25]
  Vd: 1.8 L/kg
CYP3A4
  inhibition at 10 µM: < 30%
[26]
  Tmax: 1.3 h
[27]
  Vd: 7.6 L/kg
[28]
  bioavailability: 47%
[29]
  AUC(0-inf): 0.6 µM·h
[30]
  Cmax: 503 nM

## COc1ccc(O[C@H](CC(C)C)[C@H]2CCNC2)c(C)n1
[2]
  Ki: > 890 nM

## CCN(CC)C(=O)C1(c2ccccc2)CC1CN (stereo not drawn)
[20]
  Ki: 27 nM

## COc1ccc(O[C@@H](CC(C)C)[C@H]2CCNC2)c(C)n1 (stereo in doubt; form 1)
[1]
  Ki: 0.22 nM
[2]
  Ki: 475 nM
